The results in this text go back to US10703733B2, “MCL-1 inhibitors” (Gilead Sciences, Inc., priority 2018, dated 2020).

Read-outs that look alike come from different tables or passages of the source.

The subject of one test is SKBR3 cells. The experiment in a line: SKBR3 Cell Viability Assay (CellTiter Glo). It is filed as cell-based. The settings on record: CellTiter Glo luminescence, read-out: MCL-1 CV SKBR3 EC50. Summed up: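 SKBR3 cells (6,000/well) in McCoy 5A + 10% FBS exposed to serially diluted compound for 72 h at 37° C., 5% CO2. Viability by CellTiter Glo luminescence; % inhibition normalized to DMSO (negative) and 10 μM puromycin (positive).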
(In general: ATP-based viability assays read luminescence as a measure of living cells.)

In test [1] the target is MCL-1/Bim interaction (recombinant human MCL-1 protein, residues 171-327; biotinylated human Bim peptide, residues 51-76) (Homo sapiens (Human), UniProt Q07820). In words: MCL-1/Bim Binding AlphaLISA Assay. The settings on record: 0.0625 nM 6xHis-Mcl-1 (171-327), 0.0625 nM biotinylated-Bim peptide. In a few lines: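 AlphaLISA with 0.0625 nM His-tagged MCL-1 (171-327) and 0.0625 nM biotinylated Bim (51-76) in 20 mM Hepes pH 7.5, 150 mM NaCl, 0.002% Brij 35, 1 mM DTT, 0.01% BSA. Compound preincubated 1 h with MCL-1, then Bim 2 h, acceptor beads 1 h, donor beads 1 h; percent inhibition against DMSO and no-protein/no-peptide controls.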
Sequence of MCL-1/Bim interaction (recombinant human MCL-1 protein, residues 171-327; biotinylated human Bim peptide, residues 51-76) (Q07820 171-327): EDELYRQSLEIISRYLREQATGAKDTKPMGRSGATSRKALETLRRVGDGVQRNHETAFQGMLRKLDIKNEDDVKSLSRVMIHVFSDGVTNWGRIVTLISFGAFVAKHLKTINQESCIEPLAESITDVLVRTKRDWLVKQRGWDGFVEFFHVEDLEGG
Background: In Alpha technology, singlet oxygen from a donor bead excites a nearby acceptor bead.

Take `COc1ncc(C(=O)N[S@@]2(=O)=NC(=O)c3ccc4c(c3)N(C[C@@H]3CC[C@H]3[C@@H](OC)/C=C/C[C@H](C)C2)C[C@@]2(CCCc3cc(Cl)ccc32)CO4)c(OC)n1` [Example 271]: the EC50 (as a rule, the concentration needed to bring the measured effect to its halfway point) with SKBR3 cells (Homo sapiens, SK-BR-3, 72 h) was found to be 176 nM. The IC50 (usually the concentration needed to halve the response being measured) in test [1] turned out to be 0.1 nM.
Regarding `CO[C@H]1/C=C/C[C@H](C)C[S@@](=O)(NC(=O)N[C@@H]2C[C@]2(C)OC)=NC(=O)c2ccc3c(c2)N(C[C@@H]2CC[C@H]21)C[C@@]1(CCCc2cc(Cl)ccc21)CO3` (single isomer, unassigned) [Example 312], the EC50 in the test with SKBR3 cells (Homo sapiens, SK-BR-3, 72 h) was determined as 43.5 nM. Further, the IC50 in test [1] worked out at 0.039 nM.
The like results for `CO[C@H]1/C=C/C[C@H](C)C[S@@](=O)(NC(=O)c2cc3n(n2)CCOC3)=NC(=O)c2ccc3c(c2)N(C[C@@H]2CC[C@H]21)C[C@@]1(CCCc2cc(Cl)ccc21)CO3` [Example 424] were, in that order, 147 nM and 0.037 nM.
The like results for `CO[C@H]1/C=C/C[C@H](C)C[S@@](=O)(NC(=O)N2C3COCC2C3)=NC(=O)c2ccc3c(c2)N(C[C@@H]2CC[C@H]21)C[C@@]1(CCCc2cc(Cl)ccc21)CO3` [Example 236] were, in that order, 152 nM and 0.055 nM.
Regarding `CC[C@@H]1CC/C=C/[C@H](OC)[C@@H]2CC[C@H]2CN2C[C@@]3(CCCc4cc(Cl)ccc43)COc3ccc(cc32)C(=O)N=S1(=O)NC(=O)CCc1ccnn1C` (single isomer, unassigned) [Example 71], the EC50 in the test on SKBR3 cells (72 hours) is 1390 nM. Besides, the IC50 in test [1] turned out to be 0.7 nM.
On to `CO[C@H]1/C=C/CCC[S@@](=O)(NC(=O)Cc2ccnn2C)=NC(=O)c2ccc3c(c2)N(C[C@@H]2CC[C@H]21)C[C@@]1(CCCc2cc(Cl)ccc21)CO3` [Example 29], for which the concentration giving a half-maximal response (EC50) in the test on SKBR3 cells (Homo sapiens, SK-BR-3, 72 h) amounted to 1840 nM. In test [1], the IC50 was 0.6 nM.
For `CO[C@H]1/C=C/C[C@H](C)C[S@@](=O)(NC(=O)c2cc(Cl)n(C)c2)=NC(=O)c2ccc3c(c2)N(C[C@@H]2CC[C@H]21)C[C@@]1(CCCc2cc(Cl)ccc21)CO3` [Example 118], in the test on SKBR3 cells (Homo sapiens, SK-BR-3, 72 h), the EC50 came out at 184 nM. The half-maximal inhibitory concentration (IC50) in test [1] was 0.103 nM.
Consider `CO[C@H]1/C=C/C[C@H](C)C[S@@](=O)(NC(=O)N[C@H]2C[C@](C)(O)C2)=NC(=O)c2ccc3c(c2)N(C[C@@H]2CC[C@H]21)C[C@@]1(CCCc2cc(Cl)ccc21)CO3` [Example 172], for which, in the test with SKBR3 cells (Homo sapiens, SK-BR-3, 72 h), the 50% effective concentration (EC50) amounted to 125 nM. Besides, the IC50 in test [1] was 0.022 nM.
Consider `CO[C@H]1/C=C/C[C@H](C)C[S@@](=O)(NC(=O)c2ccc3ncnn3c2)=NC(=O)c2ccc3c(c2)N(C[C@@H]2CC[C@H]21)C[C@@]1(CCCc2cc(Cl)ccc21)CO3` [Example 432], for which the concentration for a half-maximal effect (EC50) in the test with SKBR3 cells (Homo sapiens, SK-BR-3, 72 h) turned out to be 172 nM. In test [1], the half-maximal inhibitory concentration (IC50) was found to be 0.07 nM.
The like results for `CO[C@H]1/C=C/CCC[S@@](=O)(NC(=O)CCc2scnc2C)=NC(=O)c2ccc3c(c2)N(C[C@@H]2CC[C@H]21)C[C@@]1(CCCc2cc(Cl)ccc21)CO3` [Example 93] were, in that order, 4820 nM and 51 nM.
The like results for `CO[C@H]1/C=C/CCC[S@@](=O)(NC(=O)C[C@H](O)c2ccccc2)=NC(=O)c2ccc3c(c2)N(C[C@@H]2CC[C@H]21)C[C@@]1(CCCc2cc(Cl)ccc21)CO3` [Example 72] were, in that order, 262 nM and 0.1 nM.
With `COc1nn(C)cc1C(=O)N[S@@]1(=O)=NC(=O)c2ccc3c(c2)N(C[C@@H]2CC[C@H]2[C@@H](OC(=O)CN(C)C(=O)CNC(C)(C)C)/C=C/C[C@H](C)[C@H]1C)C[C@@]1(CCCc2cc(Cl)ccc21)CO3` [Example 293], the concentration for a half-maximal effect (EC50) in the test with SKBR3 cells (Homo sapiens, SK-BR-3, 72 h) was found to be 69.2 nM. Moreover, in test [1], the half-maximal inhibitory concentration (IC50) worked out at 0.058 nM.
The like results for `CO[C@H]1/C=C/C[C@H](C)C[S@@](=O)(NC(=O)[C@H]2C[C@@H](OC)C2)=NC(=O)c2ccc3c(c2)N(C[C@@H]2CC[C@H]21)C[C@@]1(CCCc2cc(Cl)ccc21)CO3` [Example 127] were, in that order, 158 nM and 0.085 nM.
The like results for `CO[C@H]1/C=C/CCC[S@@](=O)(NC(=O)CCC(F)(F)F)=NC(=O)c2ccc3c(c2)N(C[C@@H]2CC[C@H]21)C[C@@]1(CCCc2cc(Cl)ccc21)CO3` [Example 94] were, in that order, 902 nM and 0.9 nM.
The like results for `COC1CN(C(=O)N[S@@]2(=O)=NC(=O)c3ccc4c(c3)N(C[C@@H]3CC[C@H]3[C@@H](O)/C=C/C[C@H](C)C2)C[C@@]2(CCCc3cc(Cl)ccc32)CO4)C1` [Example 266] were, in that order, 53.8 nM and 0.085 nM.
For the molecule `CO[C@H]1/C=C/C[C@H](C)C[S@@](=O)(NC(=O)N[C@H]2C[C@H](CO)C2)=NC(=O)c2ccc3c(c2)N(C[C@@H]2CC[C@H]21)C[C@@]1(CCCc2cc(Cl)ccc21)CO3` [Example 189], the concentration giving a half-maximal response (EC50) with SKBR3 cells (Homo sapiens, SK-BR-3, 72 h) was 64.3 nM. In addition, in test [1], the IC50 worked out at 0.033 nM.
The like results for `CO[C@H]1/C=C/C[C@H](C)C[S@@](=O)(NC(=O)N[C@@H]2C[C@@H]2OC)=NC(=O)c2ccc3c(c2)N(C[C@@H]2CC[C@H]21)C[C@@]1(CCCc2cc(Cl)ccc21)CO3` [Example 318] were, in that order, 74.4 nM and 0.066 nM.
The like results for `CO[C@H]1/C=C/CCC[S@@](=O)(NC(=O)CC2CC2)=NC(=O)c2ccc3c(c2)N(C[C@@H]2CC[C@H]21)C[C@@]1(CCCc2cc(Cl)ccc21)CO3` [Example 21] were, in that order, 1300 nM and 0.8 nM.
Turning to `CO[C@H]1/C=C/C[C@H](C)C[S@@](=O)(NC(=O)N[C@H]2C[C@@H](COC(=O)N(C)C)C2)=NC(=O)c2ccc3c(c2)N(C[C@@H]2CC[C@H]21)C[C@@]1(CCCc2cc(Cl)ccc21)CO3` [Example 336], the concentration giving a half-maximal response (EC50) with SKBR3 cells (Homo sapiens, SK-BR-3, 72 h) came to 60.4 nM. Also, the half-inhibitory concentration (IC50) in test [1] was found to be 0.1 nM.
In the case of `CNCCO[C@H]1/C=C/[C@H](OC)[C@@H]2CC[C@H]2CN2C[C@@]3(CCCc4cc(Cl)ccc43)COc3ccc(cc32)C(=O)N=[S@](=O)(NC(=O)c2cn(C)nc2OC)C[C@H]1C` [Example 386], the EC50 in the test on SKBR3 cells (Homo sapiens, SK-BR-3, 72 h) was determined as 83.8 nM. The IC50 in test [1] was determined as 0.048 nM.
The like results for `CO[C@H]1/C=C/CCC[S@@](=O)(NC(=O)CCc2ccccc2C(F)(F)F)=NC(=O)c2ccc3c(c2)N(C[C@@H]2CC[C@H]21)C[C@@]1(CCCc2cc(Cl)ccc21)CO3` [Example 87] were, in that order, 10000 nM and 3.2 nM.
The like results for `CO[C@H]1/C=C/C[C@H](C)C[S@@](=O)(NC(=O)N2C[C@H](OC)[C@H]2C)=NC(=O)c2ccc3c(c2)N(C[C@@H]2CC[C@H]21)C[C@@]1(CCCc2cc(Cl)ccc21)CO3` [Example 250] were, in that order, 44.4 nM and 0.029 nM.
The like results for `CO[C@H]1/C=C/C[C@H](C)C[S@@](=O)(NC(=O)N[C@@H]2C[C@@H]2F)=NC(=O)c2ccc3c(c2)N(C[C@@H]2CC[C@H]21)C[C@@]1(CCCc2cc(Cl)ccc21)CO3` [Example 116] were, in that order, 141 nM and 0.08 nM.
Consider `CO[C@H]1/C=C/C[C@H](C)C[S@@](=O)(NC(=O)N2CCn3cccc3C2)=NC(=O)c2ccc3c(c2)N(C[C@@H]2CC[C@H]21)C[C@@]1(CCCc2cc(Cl)ccc21)CO3` [Example 457], for which, in the test on SKBR3 cells (Homo sapiens, SK-BR-3, 72 h), the EC50 was found to be 392 nM. The half-maximal inhibitory concentration (IC50) in test [1] worked out at 0.085 nM.
The like results for `CO[C@H]1/C=C/[C@H](OC)[C@H](C)C[S@@](=O)(NC(=O)c2cc(CN3CCN4CCOC[C@@H]4C3)n(C)c2)=NC(=O)c2ccc3c(c2)N(C[C@@H]2CC[C@H]21)C[C@@]1(CCCc2cc(Cl)ccc21)CO3` [Example 399] were, in that order, 20 nM and 0.07 nM.
The like results for `CO[C@H]1/C=C/C[C@H](C)C[S@@](=O)(NC(=O)N2CC(N3CCOCC3)C2)=NC(=O)c2ccc3c(c2)N(C[C@@H]2CC[C@H]21)C[C@@]1(CCCc2cc(Cl)ccc21)CO3` [Example 349] were, in that order, 33.7 nM and 0.026 nM.
The like results for `CO[C@H]1/C=C/CCC[S@@](=O)(NC(=O)COc2ccnn2C)=NC(=O)c2ccc3c(c2)N(C[C@@H]2CC[C@H]21)C[C@@]1(CCCc2cc(Cl)ccc21)CO3` [Example 100] were, in that order, 2260 nM and 0.2 nM.
`COC1CCN(c2nn(C)cc2C(=O)N[S@@]2(=O)=NC(=O)c3ccc4c(c3)N(C[C@@H]3CC[C@H]3[C@@H](OC)/C=C/C[C@H](C)C2)C[C@@]2(CCCc3cc(Cl)ccc32)CO4)CC1` [Example 380]: in the test on SKBR3 cells (Homo sapiens, SK-BR-3, 72 h), the EC50 is 3400 nM. Also, the IC50 in test [1] was determined as 4.54 nM.
As for `CO[C@H]1/C=C/C[C@H](C)C[S@@](=O)(NC(=O)N[C@H]2C[C@@H]2C(F)F)=NC(=O)c2ccc3c(c2)N(C[C@@H]2CC[C@H]21)C[C@@]1(CCCc2cc(Cl)ccc21)CO3` [Example 311], the half-maximal effective concentration (EC50) with SKBR3 cells (Homo sapiens, SK-BR-3, 72 h) worked out at 13.4 nM. Also, the IC50 in test [1] is 0.024 nM.
For `CO[C@H]1/C=C/CCC[S@@](=O)(NC(=O)CCc2ccon2)=NC(=O)c2ccc3c(c2)N(C[C@@H]2CC[C@H]21)C[C@@]1(CCCc2cc(Cl)ccc21)CO3` [Example 58], the EC50 in the test on SKBR3 cells (Homo sapiens, SK-BR-3, 72 h) was 664 nM. For the same molecule, the half-maximal inhibitory concentration (IC50) in test [1] worked out at 0.2 nM.
The like results for `CO[C@H]1/C=C/C[C@H](C)C[S@@](=O)(NC(=O)c2cnc(C)nc2)=NC(=O)c2ccc3c(c2)N(C[C@@H]2CC[C@H]21)C[C@@]1(CCCc2cc(Cl)ccc21)CO3` [Example 461] were, in that order, 151 nM and 0.087 nM.
The like results for `CO[C@H]1/C=C/C[C@H](C)C[S@@](=O)(NC(=O)N[C@H]2CC2(F)F)=NC(=O)c2ccc3c(c2)N(C[C@@H]2CC[C@H]21)C[C@@]1(CCCc2cc(Cl)ccc21)CO3` [Example 161] were, in that order, 168 nM and 0.025 nM.
The like results for `COc1nn(C)cc1C(=O)N[S@@]1(=O)=NC(=O)c2ccc3c(c2)N(C[C@@H]2CC[C@H]2[C@@H](OC)CC[C@H](O)[C@H](C)C1)C[C@@]1(CCCc2cc(Cl)ccc21)CO3` [Example 298] were, in that order, 71.9 nM and 0.016 nM.
